Experimental data published in publication PMC3674995, “Safety, Pharmacokinetic, and Efficacy Studies of Oral DB868 in a First Stage Vervet Monkey Model of Human African Trypanosomiasis” (PLoS Neglected Tropical Diseases, 2013).
“And” between values parts separate entries of the source, which are not always exact repeats. Equal values may be shown once. “Also recorded” adds a separate entry of the source. Values belong to the molecule of their own block, whether it stands above or below them.

What was measured:
[1] = system: T. b. rhodesiense KETRI 2537; test: Efficacy in first stage HAT vervet monkey model; assay type: in vivo; conditions: for time to clear parasites from the blood: after the 1st drug dose
Method: Monkeys that were deemed as treatment failures/relapses or developed severe adverse clinical signs as defined in the protocol (e.g., inability or reluctance to perch, less than ¼ of normal daily feed intake for 2–3 consecutive days) were immediately withdrawn from the study and humanely euthanized for post-mortem examination. These monkeys were euthanized by intravenous administration of 20% (w/v) pentobarbitone sodium solution (150 mg/kg body weight; Euthatal; Rhône-Mérieux, United Kingdom).

[2] = Metabolism of DB868 in vervet monkey liver microsomes; assay type: in vitro ADME; conditions: 10 µM, 0.5 mg/mL microsomes, 1 mM NADPH, pH 7.4, up to 120 min
Method: DB868 metabolism was studied in male vervet monkey liver microsomes (custom-prepared by XenoTech, LLC, Lenexa, KS, USA) by adapting a previously published method. Briefly, incubation mixtures contained 10 µM DB868, 0.5 mg/mL monkey liver microsomes, and 3.3 mM MgCl2 in 100 mM phosphate buffer (pH 7.4). Reactions were initiated by the addition of NADPH (1 mM final concentration). Control incubations were carried out without NADPH, DB868, or liver microsomes. Aliquots (100 µL) of the reaction mixtures were removed at 0, 5, 10, 15, 30, 60 and 120 min and mixed with 100 µL of ice-cold acetonitrile. After centrifugation to pellet precipitated proteins, the supernatants were analyzed by HPLC/UV and fluorescence using the method previously described for pafuramidine (DB289) and furamidine (DB75). Metabolite identification was performed by comparing retention times to those of synthetic standards for M1 (DB1679), M2 (DB840), M3 (DB1712), and DB829. DB868 and its metabolites were quantified using a calibration curve (0.1–10 µM) generated using synthetic standards.

[3] = Pharmacokinetics in infected vervet monkeys (first stage HAT); assay type: in vivo, vervet monkey; conditions: monkey, plasma, po, prodrug in plasma post-LDD, all oral DB868 regimens; infected; 0.04 days = 1 h; read-out: Tmax (majority, 4/6 monkeys) (converted)
[4] = system: T. b. rhodesiense STIB900; parameters: method as in PMID 19620327; conditions: oral administration; cited from earlier work
T. b. brucei GVR35 = system: T. b. brucei GVR35; parameters: method as in PMID 19620327; conditions: oral administration; cited from earlier work
[5] = parameters: method as in earlier work; conditions: cited from earlier work
[6] = Pharmacokinetics in uninfected vervet monkeys; conditions: uninfected; for concentration at 24 h / concentration at 4 h: both, monkey, po; for concentration at 24 h / concentration at 4 h / C24 h: plasma; for concentration at 24 h: C24 h; for concentration at 4 h: geometric mean C4 h, n = 4
[7] = Safety (overt toxicity, haematology, clinical chemistry) in uninfected vervet monkeys; conditions: for peak plasma urea relative to baseline: p<0.05; for highest post-treatment mean ALT: plasma
[8] = system: T. b. brucei s427 trypanosomes; parameters: method as in PMID 21402852; conditions: 3.2 µM; cited from earlier work
[9] = oral 3 mg/kg×7 days, monkeys 638, 643
[10] = after final oral dose of DB868 30 mg/kg×10 days, individual monkeys, 30 mg/kg
[11] = oral 10 mg/kg/day×10 days, 1–2 days post-LDD

time to clearance of trypanosomes from peripheral blood ([1]; monkey, in vivo, im, 4 mg/kg): 2 days
Structure (SMILES): N=C(N)c1ccc(OCCCCCOc2ccc(C(=N)N)cc2)cc1 [Pentamidine, reference compound]
Trypanosomes blood/CSF at EoT ([1]; intramuscular 4 mg/kg×7 days from 7 DPI, monkeys 651, 541, 672): Pos and Neg
Final efficacy assesment ([1]; intramuscular 4 mg/kg×7 days, monkeys 651, 541, 672): Not cured; also recorded: Cured

Structure (SMILES): CONC(=N)c1ccc(-c2ccc(-c3ccc(C(=N)NOC)cn3)o2)nc1 [DB868, 2,5-bis[5-(N-methoxyamidino)-2-pyridyl]furan]
metabolites formed [2]: metabolized in male vervet monkey liver microsomes to M1 (DB1679), M2 (DB840), M3 (DB1712), M4, and the active compound DB829
day of dosing on which parasitologically negative ([1]; oral 3 mg/kg/day for 7 days, monkey 638): 6 day
time at which parasitologically negative ([1]; oral 3 mg/kg/day for 7 days, monkey 643): 3 days post-LDD
Trypanosomes blood/CSF at EoT ([1]; oral 3 mg/kg×7 days from 7 DPI, monkeys 638, 643): Neg
Final efficacy assesment [1, 9]: Cured
Provisional efficacy at 100 days post-treatment [1, 9]: Cured
time at which consistently parasitologically negative ([1]; oral 10 mg/kg/day for 7 days, monkey 675): 7 days post-LDD
day of treatment on which parasitologically negative ([1]; oral 10 mg/kg/day for 7 days, monkey 691): 6 day
Trypanosomes blood/CSF at EoT ([1]; oral 10 mg/kg×7 days from 7 DPI, monkeys 675, 691): Neg
Provisional efficacy at 100 days post-treatment ([1]; oral 10 mg/kg×7 days, monkeys 675, 691): Cured
day of drug administration by which trypanosomes were undetectable in blood ([1]; oral 20 mg/kg/day for 5 days, all three monkeys): ≤ 4 days
Trypanosomes blood/CSF at EoT ([1]; oral 20 mg/kg×5 days from 7 DPI, monkeys 585, 658, 686, Neg = negative, Pos = positive): Neg
time to clear parasites from the blood ([1]; oral, '30 mg/kg group'): 2 to 5 days
time to clearance of trypanosomes from peripheral blood ([1]; oral, after the 1st dose, depending on the dose): 2 to 14 days
cure of infected monkeys ([1]; oral, all three regimens (3 mg/kg/day×7, 10 mg/kg/day×7, 20 mg/kg/day×5 days), treatment from 7 DPI): All infected monkeys were cured
dose required to achieve complete cure ([1]; oral, for 7 days, first stage HAT monkey model): 3 mg/kg
time to clear parasites from the blood ([1]; oral, lower dose regimen groups (3 and 10 mg/kg)): 6 to 14 days
curative cumulative dose, fold lower than the maximum tolerated dose ([1]; oral, 21 mg/kg vs 300 mg/kg cumulative): 14 fold
Tmax [3]: 57.6 min
curative [4]: 100%
curative (T. b. brucei GVR35): 100%
increase in ALT compared to untreated rats ([5]; female Sprague-Dawley rats, oral 25 mg/kg/day for 3 weeks): less than 2 fold
effect on KIM-1 ([5]; oral 12 mg/kg/day×28 days, entire 4-month observation period): no effect
AUC0-∞ [6, 10]: 200 nmol·days/L and 540 nmol·days/L and 260 nmol·days/L and 180 nmol·days/L
AUClast [6, 10]: 190 nmol·days/L and 530 nmol·days/L and 210 nmol·days/L and 170 nmol·days/L
t1/2 (terminal elimination half-life) [6, 10]: 0.4 day and 1 day (2×) and 1.3 day
concentration at 24 h ([6]; 10 mg/kg, 24 h after final oral dose of DB868 10 mg/kg×10 days, individual monkeys, BLQ = below limit of quantitation): 6 nM
concentration at 4 h ([6]; 10 mg/kg/day, oral DB868 10 mg/kg/day×10 days): 89 nM
concentration at 24 h ([6]; 30 mg/kg, 24 h after final oral dose of DB868 30 mg/kg×10 days, individual monkeys): 66 nM
concentration at 4 h ([6]; 30 mg/kg/day, oral DB868 30 mg/kg/day×10 days): 466 nM
time for plasma concentration to decline below the limit of detection ([6]; oral DB868 10 mg/kg/day×10 days): less than 1 day post-LDD
time for plasma concentration to decline below the limit of detection ([6]; oral DB868 30 mg/kg/day×10 days): 1–2 days post-LDD
geometric mean C4 h, 30 mg/kg group relative to 10 mg/kg group ([6]; oral DB868×10 days): 5.2 fold
C4 h ([6]; plasma concentration at 4 h after final (10th) oral dose of DB868 10 mg/kg×10 days, individual monkeys 643, 659, 675, 677, 10 mg/kg): 50 nM and 130 nM and 39 nM and 250 nM
C4 h ([6]; plasma concentration at 4 h after final (10th) oral dose of DB868 30 mg/kg×10 days, individual monkeys 546, 567, 668, 679, 30 mg/kg): 330 nM and 1600 nM and 280 nM and 320 nM
C24 h ([6]; 24 h after final oral dose of DB868 10 mg/kg×10 days, individual monkeys, BLQ = below limit of quantitation, 10 mg/kg): BLQ
C24 h ([6]; 24 h after final oral dose of DB868 30 mg/kg×10 days, individual monkeys, 30 mg/kg): 38 nM and 47 nM and 35 nM
transient increase of plasma urea concentrations ([7]; both dose groups, 1–2 days after the last drug dose): 2–3 fold
adverse clinical signs ([7]; oral 10 mg/kg/day for 10 days, uninfected, n = 4): did not exhibit any adverse clinical signs
BUN equivalent of peak mean urea [7, 11]: 35.9 mg/dL
mean creatinine concentration [7, 11]: 72.3 µmol/L
mean creatinine concentration (equivalent) [7, 11]: 0.8 mg/dL
peak mean urea concentration [7, 11]: 12.8 mmol/L
peak plasma urea relative to baseline [7, 11]: 2.1 fold
maximum decline of mean body weight from baseline ([7]; oral 10 mg/kg/day×10 days, baseline 3.2 kg±0.5): 6.2%
highest post-treatment mean ALT relative to second baseline sample ([7]; oral 10 mg/kg/day×10 days, p = 0.71): 2.8 fold
highest post-treatment mean ALT ([7]; oral 10 mg/kg/day×10 days): 31.3 IU/L
overt toxicity ([7]; oral 30 mg/kg/day for 10 days (cumulative 300 mg/kg), uninfected, two of four monkeys: excess mucous in stool, transient inappetance): mild signs of toxicity; also recorded: No significant overt toxicity
peak plasma urea relative to baseline ([7]; oral 30 mg/kg/day×10 days, 1–2 days post-LDD): 2.7 fold
maximum decline of mean body weight from baseline ([7]; oral 30 mg/kg/day×10 days, baseline 3.1 kg±0.3): 6.5%
mean white blood cell count, transient increase over baseline post-LDD ([7]; oral 30 mg/kg/day×10 days, p = 0.05, returned to baseline after 24 h, judged not drug-related): 1.5 fold
highest post-treatment mean ALT relative to second baseline sample ([7]; oral 30 mg/kg/day×10 days, p = 0.37): 1.3 fold
highest post-treatment mean ALT ([7]; oral 30 mg/kg/day×10 days): 20.5 IU/L
post-dosing variations of mean plasma creatinine ([7]; oral 10 or 30 mg/kg/day×10 days, not statistically significant (p>0.05)): minimal
mean AST and total and direct bilirubin levels versus baseline ([7]; oral 10 or 30 mg/kg/day×10 days, p>0.05): not statistically different from baseline values
gastrointestinal toxicity (stool, faecal occult blood tests) ([7]; oral 10 or 30 mg/kg/day×10 days, uninfected): no notable gastrointestinal toxicity occurred
overall tolerability ([7]; two oral regimens, 10 and 30 mg/kg/day for 10 days, uninfected): well tolerated
haematological parameters versus baseline ([7]; two treatment groups, 10 and 30 mg/kg/day×10 days, uninfected): did not vary significantly from baseline

Structure (SMILES): N=C(N)c1ccc(-c2ccc(-c3ccc(C(=N)N)cc3)o2)cc1 [furamidine, 2,5-bis(4-amidinophenyl)furan, reference compound]
exposure required to kill trypanosomes in culture [8]: 1 h
